Consider 24 compounds from patent publication US8901118B2, “Compounds and methods for kinase modulation, and indications therefor” (Plexxikon Inc., priority 2010, dated 2014).

Molecules are shown by their SMILES.

The target in this assay is CYP3A4(BQ) (Homo sapiens, UniProt P08684). In words: CYP3A4(BQ) inhibition. Format: in vitro ADME. The settings on record: CYP3A4, substrate BQ; read-out: Cyp IC50 3A4(BQ). The essentials: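 Inhibition of human CYP3A4 (BQ substrate) was measured by fluorescence, since blocking metabolism of a known substrate lowers the fluorescent product signal. Compounds dissolved in DMSO at 100 mM were diluted into acetonitrile and then into NADPH regeneration cofactor mix, serially diluted 1:1 across 10 points, and preincubated in 384 well plates for 10 minutes at 37° C.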
CYP3A4(BQ), sequence (P08684 whole entry): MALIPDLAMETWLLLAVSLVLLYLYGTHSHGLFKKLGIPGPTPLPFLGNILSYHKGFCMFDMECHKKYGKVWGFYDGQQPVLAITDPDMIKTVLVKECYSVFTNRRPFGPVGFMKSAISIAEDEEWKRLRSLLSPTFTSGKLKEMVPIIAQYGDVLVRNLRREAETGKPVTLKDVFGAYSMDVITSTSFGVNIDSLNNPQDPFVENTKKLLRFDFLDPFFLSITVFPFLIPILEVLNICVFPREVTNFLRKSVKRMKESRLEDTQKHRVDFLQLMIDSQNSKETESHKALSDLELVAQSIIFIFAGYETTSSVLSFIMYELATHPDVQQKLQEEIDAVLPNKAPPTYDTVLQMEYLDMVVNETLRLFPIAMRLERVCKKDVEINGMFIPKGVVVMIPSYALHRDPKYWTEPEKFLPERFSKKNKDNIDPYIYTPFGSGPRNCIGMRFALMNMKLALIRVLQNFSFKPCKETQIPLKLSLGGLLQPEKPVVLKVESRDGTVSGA
Take `Clc1cnc2[nH]cc(Cc3cnc(NC4CCCCC4)nc3)c2c1` [Compound P-3001, [5-(5-chloro-1H-pyrrolo[2,3-b]pyridin-3-ylmethyl)-pyrimidin-2-yl]-cyclohexyl-amine]: the IC50 was more than 10 µM.

With `Cc1cnc2[nH]cc(Cc3cnc(Nc4ccc(C(F)(F)F)nc4)nc3)c2c1` [Compound P-3018, [5-(5-Methyl-1H-pyrrolo[2,3-b]pyridin-3-ylmethyl)-pyrimidin-2-yl]-(6-trifluoromethyl-pyridin-3-yl)-amine], the IC50 is more than 10 µM.

Take `COc1ccc(Nc2ccc(C(=O)c3c[nH]c4ncc(C)cc34)c(F)n2)cn1` [Compound P-3040, [2-Fluoro-6-(6-methoxy-pyridin-3-ylamino)-pyridin-3-yl]-(5-methyl-1H-pyrrolo[2,3-b]pyridin-3-yl)-methanone]: the IC50 was more than 10 µM.

Regarding `Cc1cnc2[nH]cc(Cc3ccc(Nc4ccc(C)nc4)nc3F)c2c1` [Compound P-3041, [6-Fluoro-5-(5-methyl-1H-pyrrolo[2,3-b]pyridin-3-ylmethyl)-pyridin-2-yl]-(6-methyl-pyridin-3-yl)-amine], the IC50 was more than 10 µM.

In the case of `Cc1cnc2[nH]cc(C(=O)c3ccc(Nc4ccc(C)nc4)nc3F)c2c1` [Compound P-3043, [2-Fluoro-6-(6-methyl-pyridin-3-ylamino)-pyridin-3-yl]-(5-methyl-1H-pyrrolo[2,3-b]pyridin-3-yl)-methanone], the concentration for half-maximal inhibition (IC50) is more than 10 µM.

For `Cc1ccc(Nc2ccc(C(=O)c3c[nH]c4ncc(Cl)cc34)c(F)n2)cn1` [Compound P-3044, (5-Chloro-1H-pyrrolo[2,3-b]pyridin-3-yl)-[2-fluoro-6-(6-methyl-pyridin-3-ylamino)-pyridin-3-yl]-methanone], the IC50 is more than 10 µM.

On to `CCc1ccc(Nc2ccc(Cc3c[nH]c4ncc(C)cc34)c(F)n2)cn1` [Compound P-3048, (6-Ethyl-pyridin-3-yl)-[6-fluoro-5-(5-methyl-1H-pyrrolo[2,3-b]pyridin-3-ylmethyl)-pyridin-2-yl]-amine], for which the IC50 was more than 10 µM.

As to `CCc1ccc(Nc2ccc(C(=O)c3c[nH]c4ncc(C)cc34)c(F)n2)cn1` [Compound P-3049, [6-(6-Ethyl-pyridin-3-ylamino)-2-fluoro-pyridin-3-yl]-(5-methyl-1H-pyrrolo[2,3-b]pyridin-3-yl)-methanone], the IC50 was more than 10 µM.

Regarding `Cc1cnc2[nH]cc(Cc3ccc(Nc4ccc(C5CC5)nc4)nc3F)c2c1` [Compound P-3050, (6-Cyclopropyl-pyridin-3-yl)-[6-fluoro-5-(5-methyl-1H-pyrrolo[2,3-b]pyridin-3-ylmethyl)-pyridin-2-yl]-amine], the IC50 is more than 10 µM.

As to `Cc1cnc2[nH]cc(C(=O)c3ccc(Nc4ccc(C5CC5)nc4)nc3F)c2c1` [Compound P-3051, [6-(6-Cyclopropyl-pyridin-3-ylamino)-2-fluoro-pyridin-3-yl]-(5-methyl-1H-pyrrolo[2,3-b]pyridin-3-yl)-methanone], the IC50 is more than 10 µM.

Turning to `O=C(c1ccc(Nc2ccc(C3CC3)nc2)nc1F)c1c[nH]c2ncccc12` [Compound P-3052, [6-(6-Cyclopropyl-pyridin-3-ylamino)-2-fluoro-pyridin-3-yl]-(1H-pyrrolo[2,3-b]pyridin-3-yl)-methanone], the IC50 was more than 10 µM.

Take `Fc1nc(Nc2ccc(C3CC3)nc2)ccc1Cc1c[nH]c2ncccc12` [Compound P-3053, (6-Cyclopropyl-pyridin-3-yl)-[6-fluoro-5-(1H-pyrrolo[2,3-b]pyridin-3-ylmethyl)-pyridin-2-yl]-amine]: the IC50 is more than 10 µM.

Take `COc1ncnc2[nH]cc(Cc3ccc(Nc4ccc(Cl)nc4)nc3F)c12` [Compound P-4003, (6-Chloro-pyridin-3-yl)-[6-fluoro-5-(4-methoxy-7H-pyrrolo[2,3-d]pyrimidin-5-ylmethyl)-pyridin-2-yl]-amine]: the IC50 is more than 10 µM.

Take `CCOc1ccc(Nc2ccc(Cc3c[nH]c4ncnc(OCCOC)c34)c(F)n2)cn1` [Compound P-4008, (6-Ethoxy-pyridin-3-yl)-{6-fluoro-5-[4-(2-methoxy-ethoxy)-7H-pyrrolo[2,3-d]pyrimidin-5-ylmethyl]-pyridin-2-yl}-amine]: the IC50 was more than 10 µM.

As for `CCc1ccc(Nc2ccc(Cc3c[nH]c4ncnc(C)c34)c(F)n2)cn1` [Compound P-4009, (6-Ethyl-pyridin-3-yl)-[6-fluoro-5-(4-methyl-7H-pyrrolo[2,3-d]pyrimidin-5-ylmethyl)-pyridin-2-yl]-amine], the IC50 was more than 10 µM.

`COc1ncnc2[nH]cc(Cc3ccc(Nc4ccc(C)nc4)nc3F)c12` [Compound P-4010, [6-Fluoro-5-(4-methoxy-7H-pyrrolo[2,3-d]pyrimidin-5-ylmethyl)-pyridin-2-yl]-(6-methyl-pyridin-3-yl)-amine]: the IC50 is more than 10 µM.

On to `CCn1cc(Nc2ccc(Cc3c[nH]c4ncnc(OC)c34)c(F)n2)cn1` [Compound P-4011, (1-Ethyl-1H-pyrazol-4-yl)-[6-fluoro-5-(4-methoxy-7H-pyrrolo[2,3-d]pyrimidin-5-ylmethyl)-pyridin-2-yl]-amine], for which the IC50 is more than 10 µM.

For the compound `CCn1cc(Nc2ccc(Cc3c[nH]c4ncnc(C)c34)c(F)n2)cn1` [Compound P-4013, (1-Ethyl-1H-pyrazol-4-yl)-[6-fluoro-5-(4-methyl-7H-pyrrolo[2,3-d]pyrimidin-5-ylmethyl)-pyridin-2-yl]-amine], the IC50 is more than 10 µM.

For the compound `CCn1cc(Nc2ccc(Cc3c[nH]c4ncnc(OCCOC)c34)c(F)n2)cn1` [Compound P-4014, (1-Ethyl-1H-pyrazol-4-yl)-{6-fluoro-5-[4-(2-methoxy-ethoxy)-7H-pyrrolo[2,3-d]pyrimidin-5-ylmethyl]-pyridin-2-yl}-amine], the half-maximal inhibitory concentration (IC50) was more than 10 µM.

As to `COCCOc1ncnc2[nH]cc(Cc3ccc(Nc4ccc(C)nc4)nc3F)c12` [Compound P-4015, {6-Fluoro-5-[4-(2-methoxy-ethoxy)-7H-pyrrolo[2,3-d]pyrimidin-5-ylmethyl]-pyridin-2-yl}-(6-methyl-pyridin-3-yl)-amine], the IC50 was more than 10 µM.

With `CCc1ccc(Nc2ccc(Cc3c[nH]c4ncnc(OCCOC)c34)c(F)n2)cn1` [Compound P-4016, (6-Ethyl-pyridin-3-yl)-{6-fluoro-5-[4-(2-methoxy-ethoxy)-7H-pyrrolo[2,3-d]pyrimidin-5-ylmethyl]-pyridin-2-yl}-amine], the IC50 was more than 10 µM.

With `CCOc1ncnc2[nH]cc(Cc3ccc(Nc4ccc(C)nc4)nc3F)c12` [Compound P-4017, [5-(4-Ethoxy-7H-pyrrolo[2,3-d]pyrimidin-5-ylmethyl)-6-fluoro-pyridin-2-yl]-(6-methyl-pyridin-3-yl)-amine], the 50% inhibitory concentration (IC50) is more than 10 µM.

For the compound `CCOc1ncnc2[nH]cc(Cc3ccc(Nc4ccc(OC)nc4)nc3F)c12` [Compound P-4018, [5-(4-Ethoxy-7H-pyrrolo[2,3-d]pyrimidin-5-ylmethyl)-6-fluoro-pyridin-2-yl]-(6-methoxy-pyridin-3-yl)-amine], the IC50 is more than 10 µM.

As to `COCCOc1ncnc2[nH]cc(Cc3ccc(Nc4ccc(OC)nc4)nc3F)c12` [Compound P-4019, {6-Fluoro-5-[4-(2-methoxy-ethoxy)-7H-pyrrolo[2,3-d]pyrimidin-5-ylmethyl]-pyridin-2-yl}-(6-methoxy-pyridin-3-yl)-amine], the IC50 was more than 10 µM.

In general, IC50 refers to the concentration at which inhibition is half-maximal.
